Test results: patent US20250154197A1, “LIPOLYTIC PEPTIDES” (FUNDACIÓ HOSPITAL UNIVERSITARI VALL D'HEBRON - INSTITUT DE …, priority 2021, published 2025)
Where no end group is shown, it is not given here. [ ]: non-standard residue; d: D form.

Assays:
Format in all cases: cell-based
3T3-L1 mouse adipocytes = test: Lipolytic activity: glycerol release in differentiated 3T3-L1 mouse adipocytes (12 h); settings: for Lipolysis Activity measured as Glycerol (μM) release in media: 3T3-L1 mouse adipocytes, 12 h
Description: JCRB9014-A) from Tebu-Bio (Tebu-bio, Barcelona, Spain). Briefly, mouse adipocytes (3T3-L1 cells) were cultured in 48 well plates as described previously (Saez-Lopez et al., 2020). Adipocytes were differentiated using cell culture reagents purchased from Tebu-Bio and following the manufacturer's instructions. At day of differentiation cells were treated in duplicates with vehicle (DMSO), Caffeine (100 μg/ml), and each of the peptides at the specified doses in Table 6a below. At the end of the experiment (12 h), supernatants were collected and glycerol content was measured using a Glycerol Assay Kit (Sigma) following manufacturer's instructions.

[1] = tested on: human subcutaneoous mature adipocytes; test: Lipolytic activity: glycerol release in human adipocytes (Lipolysis Assay kit); settings: human subcutaneous mature adipocytes
[2] = tested on: differentiated human subcutaneous adipocytes; test: Time course lipolytic activity: glycerol release at 120' and 240'; settings: for Lipolytic activity measured as glycerol release: 10 ug/ml, human subcutaneous adipocytes
Description: At the end of the experiment, supernatants were collected and glycerol content was measured using a Lipolysis Assay kit from Tebu-bio (LIP-1—NC) following the manufacturer's instructions.

Compound	Lipolysis Activity measured as Glycerol (μM) release in media (3T3-L1 mouse adipocytes; 100 μg/ml)	Lipolysis Activity measured as Glycerol (μM) release in media ([1]; 100 μg/ml)	lipolytic activity at 120' ([2]; 120', 10 μg/ml)	Lipolytic activity measured as glycerol release ([2]; 120 min)	Lipolytic activity measured as glycerol release ([2]; 240 min)	Lipolysis Activity measured as Glycerol (μM) release in media (3T3-L1 mouse adipocytes; 1 μg/ml)	Lipolysis Activity measured as Glycerol (μM) release in media (3T3-L1 mouse adipocytes; 10 μg/ml)	increase in lipolytic activity compared to the L version (3T3-L1 mouse adipocytes; D-decapeptide vs L version (SEQ ID NO: 2))	Lipolytic activity measured as glycerol release ([2]; 120 min, listed as SEQ ID NO: 3)	Lipolytic activity measured as glycerol release ([2]; 240 min, listed as SEQ ID NO: 3)	fold more efficient in inducing lipolysis vs caffeine or SEQ ID NO:2 ([2]; time 120', 10 μg/ml)	fold more efficient in inducing lipolysis vs caffeine or SEQ ID NO:2 ([2]; time 240', 10 μg/ml)	Lipolytic activity measured as glycerol release ([2]; 120 min, listed as SEQ ID NO: 2)	Lipolytic activity measured as glycerol release ([2]; 240 min, listed as SEQ ID NO: 2)	Lipolysis Activity measured as Glycerol (μM) release in media ([1]; 25 μg/ml)	Lipolysis Activity measured as Glycerol (μM) release in media ([1]; 50 μg/ml)	Lipolysis Activity measured as Glycerol (μM) release in media ([1]; 75 μg/ml)
Cn1c(=O)c2c(ncn2C)n(C)c1=O [Caffeine]	297 µM	35.53 µM	neither caffeine nor the comparative peptide, at the same dose, provided any significant activity at that time	−3.0856 UM	17.1602 UM												
TWDPEGVIFY [GP3D] ([dT][dW][dD][dP][dE]G[dV][dI][dF][dY]) [N-term NH2, C-term COOH]	580 µM					538 µM	574 µM	about 2 fold	24.8964 UM	90.1603 UM	more than 24 fold	more than 5 fold					
TWDPEGVIFY [GP3L, comparative L-decapeptide; N-term NH2, C-term COOH, reference compound]	360 µM					230 µM	250 µM						−0.5343 UM	17.7363 UM			
WDPEGLY (H-[dW][dD][dP][dE]G[dL][dY]-OH; SMILES CC(C)C[C@@H](NC(=O)CNC(=O)[C@@H](CCC(=O)O)NC(=O)[C@H]1CCCN1C(=O)[C@@H](CC(=O)O)NC(=O)[C@H](N)Cc1c[nH]c2ccccc12)C(=O)N[C@H](Cc1ccc(O)cc1)C(=O)O) [GP3D-DM1, N-term NH2, C-term COOH]	324 µM	40.28 µM				356 µM	477 µM								15.94 µM	32.98 µM	37.78 µM
WDPEGV (H-[dW][dD][dP][dE]G[dV]-OH; SMILES CC(C)[C@@H](NC(=O)CNC(=O)[C@@H](CCC(=O)O)NC(=O)[C@H]1CCCN1C(=O)[C@@H](CC(=O)O)NC(=O)[C@H](N)Cc1c[nH]c2ccccc12)C(=O)O) [GP3D-6 I VIII IX X, N-term NH2, C-term COOH]	360 µM	51.90 µM													18.07 µM	32.53 µM	47.82 µM
